Like-named read-outs stand apart in the source and are kept apart here.
Key:
[1] = tested on: 3D7 P. falciparum parasites; assay: Growth inhibition assay (72 h, LDH activity); type: cell-based, Plasmodium falciparum; conditions: for EC50: Plasmodium falciparum
How it was run: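 Synchronised ring-stage P. falciparum (0.3-0.6% parasitemia, 2% haematocrit) grown 72 h in serial compound dilutions, sometimes with 0, 0.25 or 2.5 mM glucosamine. Growth read as LDH activity (Malstat/NBT, A650) after freeze-thaw, normalised to DMSO and uninfected RBC. EC50 by nonlinear regression.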

[2] = in vitro; conditions: human
[3] = tested on: PopE-F10 M-833 resistant clone (PfSTART1 N330K); assay: Growth inhibition assay (72 h, LDH activity); type: cell-based, Plasmodium falciparum
How it was run: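 Synchronised ring-stage 3D7-derived clones (0.3-0.6% parasitemia, 2% haematocrit) grown 72 h in compound serial dilutions, some with 0, 0.25 or 2.5 mM glucosamine. Growth read as LDH activity after freeze-thaw (Malstat/NBT, A650), normalised to DMSO and uninfected RBC; EC50 from variable-slope log(inhibitor) fit.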

O=C(CNc1ccc(Cl)c(S(=O)(=O)N2CCOCC2)c1)Nc1ccc(F)c(Cl)c1 [compound 2, reference compound]
(av-uRBC) / (DMSO-uRBC) x100 ([1]; 3D7, conc. 3.04832 nM, Biological replicate 1 (2021-10-25)): 101.583 | (av-uRBC) / (DMSO-uRBC) x100 ([1]; 3D7, conc. 3.04832 nM, Biological replicate 2 (2021-11-03)): 104.234 | (av-uRBC) / (DMSO-uRBC) x100 ([1]; 3D7, conc. 3.04832 nM, Biological replicate 3 (2021-11-11)): 118.798 | (av-uRBC) / (DMSO-uRBC) x100 ([1]; 3D7, conc. 9.14495 nM, Biological replicate 1 (2021-10-25)): 98.3522 | (av-uRBC) / (DMSO-uRBC) x100 ([1]; 3D7, conc. 9.14495 nM, Biological replicate 2 (2021-11-03)): 106.026 | (av-uRBC) / (DMSO-uRBC) x100 ([1]; 3D7, conc. 9.14495 nM, Biological replicate 3 (2021-11-11)): 112.58 | (av-uRBC) / (DMSO-uRBC) x100 ([1]; 3D7, conc. 27.4348 nM, Biological replicate 1 (2021-10-25)): 92.7855 | (av-uRBC) / (DMSO-uRBC) x100 ([1]; 3D7, conc. 27.4348 nM, Biological replicate 2 (2021-11-03)): 105.906 | (av-uRBC) / (DMSO-uRBC) x100 ([1]; 3D7, conc. 27.4348 nM, Biological replicate 3 (2021-11-11)): 106.329 | (av-uRBC) / (DMSO-uRBC) x100 ([1]; 3D7, conc. 82.3045 nM, Biological replicate 1 (2021-10-25)): 76.9881 | (av-uRBC) / (DMSO-uRBC) x100 ([1]; 3D7, conc. 82.3045 nM, Biological replicate 2 (2021-11-03)): 101.625 | (av-uRBC) / (DMSO-uRBC) x100 ([1]; 3D7, conc. 82.3045 nM, Biological replicate 3 (2021-11-11)): 81.2348 | (av-uRBC) / (DMSO-uRBC) x100 ([1]; 3D7, conc. 246.914 nM, Biological replicate 1 (2021-10-25)): 38.3866 | (av-uRBC) / (DMSO-uRBC) x100 ([1]; 3D7, conc. 246.914 nM, Biological replicate 2 (2021-11-03)): 48.8275 | (av-uRBC) / (DMSO-uRBC) x100 ([1]; 3D7, conc. 246.914 nM, Biological replicate 3 (2021-11-11)): 35.6638 | (av-uRBC) / (DMSO-uRBC) x100 ([1]; 3D7, conc. 740.741 nM, Biological replicate 1 (2021-10-25)): 12.6522 | (av-uRBC) / (DMSO-uRBC) x100 ([1]; 3D7, conc. 740.741 nM, Biological replicate 2 (2021-11-03)): 13.3573 | (av-uRBC) / (DMSO-uRBC) x100 ([1]; 3D7, conc. 740.741 nM, Biological replicate 3 (2021-11-11)): 9.565 | (av-uRBC) / (DMSO-uRBC) x100 ([1]; 3D7, conc. 2222.22 nM, Biological replicate 1 (2021-10-25)): 9.471 | (av-uRBC) / (DMSO-uRBC) x100 ([1]; 3D7, conc. 2222.22 nM, Biological replicate 2 (2021-11-03)): 10.1641 | (av-uRBC) / (DMSO-uRBC) x100 ([1]; 3D7, conc. 2222.22 nM, Biological replicate 3 (2021-11-11)): 7.82 | (av-uRBC) / (DMSO-uRBC) x100 ([1]; 3D7, conc. 6666.67 nM, Biological replicate 1 (2021-10-25)): 8.762 | (av-uRBC) / (DMSO-uRBC) x100 ([1]; 3D7, conc. 6666.67 nM, Biological replicate 2 (2021-11-03)): 10.3401 | (av-uRBC) / (DMSO-uRBC) x100 ([1]; 3D7, conc. 6666.67 nM, Biological replicate 3 (2021-11-11)): 6.881 | (av-uRBC) / (DMSO-uRBC) x100 ([1]; 3D7, conc. 20000 nM, Biological replicate 1 (2021-10-25)): 8.397 | (av-uRBC) / (DMSO-uRBC) x100 ([1]; 3D7, conc. 20000 nM, Biological replicate 2 (2021-11-03)): 8.683 | (av-uRBC) / (DMSO-uRBC) x100 ([1]; 3D7, conc. 20000 nM, Biological replicate 3 (2021-11-11)): 3.998 | EC50 ([1]; 3D7, 72 h, Supplementary Table 1, 3D7, 72 h, read-out: EC50): 171 nM | EC50 ([1]; 3D7, Fig 4A, 3D7 parasites, read-out: Pf 3D7 EC50 (SD)): 140 nM | CC50 [2]: > 40000 nM | EC50 ([3]; Plasmodium falciparum, 72 h, Supplementary Table 1, PopE-F10 (N330K)): > 20000 nM | resistance of the line compared with 3D7 ([3]; PopE-F10 (N330K), Fig 4B): highly resistant | (av-uRBC) / (DMSO-uRBC) x100 ([3]; PopE-F10, 3.04832 nM, biological replicate 1): 114.401 | (av-uRBC) / (DMSO-uRBC) x100 ([3]; PopE-F10, 3.04832 nM, biological replicate 2): 112.198 | (av-uRBC) / (DMSO-uRBC) x100 ([3]; PopE-F10, 3.04832 nM, biological replicate 3): 118.159 | (av-uRBC) / (DMSO-uRBC) x100 ([3]; PopE-F10, 9.14495 nM, biological replicate 1): 113.83 | (av-uRBC) / (DMSO-uRBC) x100 ([3]; PopE-F10, 9.14495 nM, biological replicate 2): 112.634 | (av-uRBC) / (DMSO-uRBC) x100 ([3]; PopE-F10, 9.14495 nM, biological replicate 3): 115.839 | (av-uRBC) / (DMSO-uRBC) x100 ([3]; PopE-F10, 27.4348 nM, biological replicate 1): 109.84 | (av-uRBC) / (DMSO-uRBC) x100 ([3]; PopE-F10, 27.4348 nM, biological replicate 2): 113.332 | (av-uRBC) / (DMSO-uRBC) x100 ([3]; PopE-F10, 27.4348 nM, biological replicate 3): 126.539 | (av-uRBC) / (DMSO-uRBC) x100 ([3]; PopE-F10, 82.3045 nM, biological replicate 1): 112.064 | (av-uRBC) / (DMSO-uRBC) x100 ([3]; PopE-F10, 82.3045 nM, biological replicate 2): 115.064 | (av-uRBC) / (DMSO-uRBC) x100 ([3]; PopE-F10, 82.3045 nM, biological replicate 3): 112.119 | (av-uRBC) / (DMSO-uRBC) x100 ([3]; PopE-F10, 246.914 nM, biological replicate 1): 108.998 | (av-uRBC) / (DMSO-uRBC) x100 ([3]; PopE-F10, 246.914 nM, biological replicate 2): 111.627 | (av-uRBC) / (DMSO-uRBC) x100 ([3]; PopE-F10, 246.914 nM, biological replicate 3): 122.435 | (av-uRBC) / (DMSO-uRBC) x100 ([3]; PopE-F10, 740.741 nM, biological replicate 1): 107.242 | (av-uRBC) / (DMSO-uRBC) x100 ([3]; PopE-F10, 740.741 nM, biological replicate 2): 111.201 | (av-uRBC) / (DMSO-uRBC) x100 ([3]; PopE-F10, 740.741 nM, biological replicate 3): 127.133 | (av-uRBC) / (DMSO-uRBC) x100 ([3]; PopE-F10, 2222.22 nM, biological replicate 1): 102.224 | (av-uRBC) / (DMSO-uRBC) x100 ([3]; PopE-F10, 2222.22 nM, biological replicate 2): 112.371 | (av-uRBC) / (DMSO-uRBC) x100 ([3]; PopE-F10, 2222.22 nM, biological replicate 3): 122.627 | (av-uRBC) / (DMSO-uRBC) x100 ([3]; PopE-F10, 6666.67 nM, biological replicate 1): 102.39 | (av-uRBC) / (DMSO-uRBC) x100 ([3]; PopE-F10, 6666.67 nM, biological replicate 2): 105.46 | (av-uRBC) / (DMSO-uRBC) x100 ([3]; PopE-F10, 6666.67 nM, biological replicate 3): 111.965 | (av-uRBC) / (DMSO-uRBC) x100 ([3]; PopE-F10, 20000 nM, biological replicate 1): 70.532 | (av-uRBC) / (DMSO-uRBC) x100 ([3]; PopE-F10, 20000 nM, biological replicate 2): 73.7076 | (av-uRBC) / (DMSO-uRBC) x100 ([3]; PopE-F10, 20000 nM, biological replicate 3): 50.604 | Fold change compared to 3D7 ([3]; Supplementary Table 1, EC50 on PopE-F10 vs 3D7): > 117 fold
